Ten molecules from patent US20250011368A1, “DLL3 TARGETING PEPTIDES AND CONSTRUCTS THEREOF” (MARIANA ONCOLOGY INC., priority 2023, published 2025) can be followed below.

Bridge positions count the residues as written; N and C are the ends. Square brackets hold non-standard residues; d marks the D form. Peptide text beside a SMILES is read from it. * marks the point of attachment. ξ: configuration not given here. DOTA = O=C(O)CN1CCN(CC(=O)O)CCN(CC(=O)*)CCN(CC(=O)O)CC1; Phe(4-CF3) = N[C@@H](Cc1ccc(C(F)(F)F)cc1)C(=O)O; Trp(5-F) = N[C@@H](Cc1c[nH]c2ccc(F)cc12)C(=O)O; Phe(2-CF3) = N[C@@H](Cc1ccccc1C(F)(F)F)C(=O)O; Trp(7-aza) = N[C@@H](Cc1c[nH]c2ncccc12)C(=O)O; Pro(trans-4-F) = O=C(O)[C@@H]1C[C@@H](F)CN1; PEG8 = NCCOCCOCCOCCOCCOCCOCCOCCOCCC(=O)O; Phe(4-F) = N[C@@H](Cc1ccc(F)cc1)C(=O)O; 1Nal = N[C@@H](Cc1cccc2ccccc12)C(=O)O; 2Nal = N[C@@H](Cc1ccc2ccccc2c1)C(=O)O; Gly(4-THP) = N[C@H](C(=O)O)C1CCOCC1; Nva(3-Et) = CCC(CC)[C@H](N)C(=O)O; Cha = N[C@@H](CC1CCCCC1)C(=O)O; Aze = O=C(O)[C@@H]1CCN1; ξC = NC(CS)C(=O)O

In this experiment the target is T1, human DLL3 (Homo sapiens, UniProt Q9NYJ7).
T1 sequence (Q9NYJ7 27-618): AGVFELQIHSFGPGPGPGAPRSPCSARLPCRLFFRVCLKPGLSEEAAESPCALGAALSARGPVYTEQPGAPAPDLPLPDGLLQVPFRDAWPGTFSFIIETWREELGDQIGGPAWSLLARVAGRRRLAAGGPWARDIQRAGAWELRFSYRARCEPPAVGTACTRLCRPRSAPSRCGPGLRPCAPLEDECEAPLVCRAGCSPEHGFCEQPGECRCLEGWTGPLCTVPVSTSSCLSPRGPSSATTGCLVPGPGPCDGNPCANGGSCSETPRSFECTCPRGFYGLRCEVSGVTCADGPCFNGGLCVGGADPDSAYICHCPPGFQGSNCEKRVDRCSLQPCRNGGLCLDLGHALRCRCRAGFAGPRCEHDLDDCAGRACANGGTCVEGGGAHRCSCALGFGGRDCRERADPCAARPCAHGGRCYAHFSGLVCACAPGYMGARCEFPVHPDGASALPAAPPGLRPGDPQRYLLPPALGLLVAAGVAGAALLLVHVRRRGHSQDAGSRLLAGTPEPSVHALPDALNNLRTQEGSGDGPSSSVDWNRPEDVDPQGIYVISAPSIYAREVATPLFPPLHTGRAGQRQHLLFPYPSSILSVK
Briefly: Affinity determination by Surface Plasmon Resonance (SPR). Type of experiment: binding. Conditions: 25° C., biotinylated human DLL3 immobilized on streptavidin sensor chip, 1:1 binding model; read-out: SPR KD. As to the method:
SPR studies were performed on the compounds disclosed herein using the following protocol.
Biotinylated target ligand human DLL3 was immobilized on a streptavidin sensor chip. A reference surface was set up for nonspecific binding and refractive index changes. For analysis of the kinetics of interactions, varying concentrations of samples were injected at a flow rate of 100 μL/minute using running buffer containing 20 mM phosphate buffer with 2.7 mM KCl, 137 mM NaCl, 0.05% Surfactant P20 and 2% DMSO. Sensorgram curves were fitted with 1:1 binding model, and affinity and kinetic parameters were obtained using Biacore Insight evaluation 4.0. software.
With `CC(=O)N[C@@H](Cc1c[nH]c2ccc(F)cc12)C(=O)N[C@H](C(=O)N[C@@H](CC1CCCCC1)C(=O)N[C@H]1CSSC[C@@H](C(=O)N[C@@H](Cc2c[nH]c3ncccc23)C(=O)N2C[C@H](F)C[C@H]2C(=O)N[C@H](CCCCNC(=O)CN2CCN(CC(=O)O)CCN(CC(=O)O)CCN(CC(=O)O)CC2)C(N)=O)NC(=O)[C@H](CC(=O)O)NC(=O)[C@H](Cc2cnc[nH]2)NC(=O)[C@H](Cc2ccc(C(F)(F)F)cc2)NC(=O)[C@H](CC(N)=O)NC(=O)[C@H](CC(N)=O)NC1=O)[C@@H](C)O` [compound 149, Ac-(5Fluoro-W)-T-(CHA)-C(3)-N-N-(4CF3-F)-H-D-C(3)-(7Aza-W)-(trans4Fluoro-P)-[D-Lys(DOTA)]-NH2] (Ac-[Trp(5-F)]T[Cha]CNN[Phe(4-CF3)]HDC[Trp(7-aza)][Pro(trans-4-F)][dK](DOTA)-NH2; disulfide 4-10), the Kd (usually the free concentration of one partner at which half of the binding sites on the other are occupied at equilibrium, for simple one-to-one binding) was in the range of 1 to 10 nM.

Take `CC[C@H](C)[C@H](NC(=O)[C@@H](NC(=O)[C@H](Cc1c[nH]c2ccccc12)NC(C)=O)[C@@H](C)O)C(=O)N[C@H]1CSSCC(C(=O)N[C@@H](Cc2c[nH]c3ccccc23)C(=O)N2CCC[C@H]2C(=O)N[C@H](CCCCNC(=O)CN2CCN(CC(=O)O)CCN(CC(=O)O)CCN(CC(=O)O)CC2)C(N)=O)NC(=O)[C@H](CC(=O)O)NC(=O)[C@H](Cc2cnc[nH]2)NC(=O)[C@H](Cc2c[nH]c3ncccc23)NC(=O)[C@H](CC(N)=O)NC(=O)[C@H](CC(N)=O)NC1=O` (stereo partly drawn) [compound 85, Ac-W-T-I-C(3)-N-N-(7Aza-W)-H-D-C(3)-W-P-[D-Lys(DOTA)]-NH2] (Ac-WTICNN[Trp(7-aza)]HD[ξC]WP[dK](DOTA)-NH2; disulfide 4-10): the Kd lay in the range of 1 to 10 nM. For `CC[C@H](C)[C@H](NC(=O)[C@@H](NC(=O)[C@H](Cc1c[nH]c2ccccc12)NC(C)=O)[C@@H](C)O)C(=O)N[C@H]1CSSC[C@@H](C(=O)N[C@@H](Cc2c[nH]c3ncccc23)C(=O)N2CCC[C@H]2C(=O)N[C@H](CCCCNC(=O)CN2CCN(CC(=O)O)CCN(CC(=O)O)CCN(CC(=O)O)CC2)C(N)=O)NC(=O)[C@H](CC(=O)O)NC(=O)[C@H](Cc2cnc[nH]2)NC(=O)[C@H](Cc2c[nH]c3ccccc23)NC(=O)[C@H](CC(N)=O)NC(=O)[C@H](CC(N)=O)NC1=O` [compound 87, Ac-W-T-I-C(3)-N-N-W-H-D-C(3)-(7Aza-W)-P-[D-Lys(DOTA)]-NH2] (Ac-WTICNNWHDC[Trp(7-aza)]P[dK](DOTA)-NH2; disulfide 4-10), the Kd was in the range of 10 to 100 nM.

For the molecule `CC(=O)N[C@@H](Cc1c[nH]c2ccc(F)cc12)C(=O)N[C@H](C(=O)N[C@@H](CC1CCCCC1)C(=O)N[C@H]1CSSC[C@@H](C(=O)N[C@@H](Cc2c[nH]c3ncccc23)C(=O)N2C[C@H](F)C[C@H]2C(=O)N[C@H](CCCCNC(=O)CN2CCN(CC(=O)O)CCN(CC(=O)O)CCN(CC(=O)O)CC2)C(N)=O)NC(=O)[C@H](CC(=O)O)NC(=O)[C@H](Cc2cnc[nH]2)NC(=O)[C@H](Cc2ccc(F)cc2)NC(=O)[C@H](CC(N)=O)NC(=O)[C@H](CC(N)=O)NC1=O)[C@@H](C)O` [compound 133, Ac-(5Fluoro-W)-T-(CHA)-C(3)-N-N-(4Fluoro-F)-H-D-C(3)-(7Aza-W)-(trans4Fluoro-P)-[D-Lys(DOTA)]-NH2] (Ac-[Trp(5-F)]T[Cha]CNN[Phe(4-F)]HDC[Trp(7-aza)][Pro(trans-4-F)][dK](DOTA)-NH2; disulfide 4-10), the Kd lay within 1 to 10 nM. In the case of `CC[C@H](C)[C@H](NC(=O)[C@@H](NC(=O)[C@H](Cc1c[nH]c2ccccc12)NC(C)=O)[C@@H](C)O)C(=O)N[C@H]1CSSC[C@@H](C(=O)N[C@@H](Cc2c[nH]c3ccccc23)C(=O)N2CCC[C@H]2C(=O)N[C@H](CCCCNC(=O)CN2CCN(CC(=O)O)CCN(CC(=O)O)CCN(CC(=O)O)CC2)C(N)=O)NC(=O)[C@H](CC(=O)O)NC(=O)[C@H](Cc2cnc[nH]2)NC(=O)[C@H](Cc2cccc3ccccc23)NC(=O)[C@H](CC(N)=O)NC(=O)[C@H](CC(N)=O)NC1=O` [compound 74, Ac-W-T-I-C(3)-N-N-(1Nal)-H-D-C(3)-W-P-[D-Lys(DOTA)]-NH2] (Ac-WTICNN[1Nal]HDCWP[dK](DOTA)-NH2; disulfide 4-10), the Kd was 1 to 10 nM.

`CC(=O)N[C@@H](Cc1c[nH]c2ccc(F)cc12)C(=O)N[C@H](C(=O)N[C@H](C(=O)N[C@H]1CSSC[C@@H](C(=O)N[C@@H](Cc2c[nH]c3ncccc23)C(=O)N2C[C@H](F)C[C@H]2C(=O)N[C@@H](CCCCNC(=O)CN2CCN(CC(=O)O)CCN(CC(=O)O)CCN(CC(=O)O)CC2)C(N)=O)NC(=O)[C@H](CC(=O)O)NC(=O)[C@H](Cc2c[nH]cn2)NC(=O)[C@H](Cc2ccc3ccccc3c2)NC(=O)[C@H](CC(N)=O)NC(=O)[C@H](CC(N)=O)NC1=O)C1CCOCC1)[C@@H](C)O` [compound 243, Ac-(5Fluoro-W)-T-(THPG)-C(3)-N-N-(2Nal)-H-D-C(3)-(7Aza-W)-(trans4Fluoro-P)-[D-Lys(DOTA)]-NH2] (Ac-[Trp(5-F)]T[Gly(4-THP)]CNN[2Nal]HDC[Trp(7-aza)][Pro(trans-4-F)]K(DOTA)-NH2; disulfide 4-10): the Kd was less than 1 nM. `CC[C@H](C)[C@H](NC(=O)[C@@H](NC(=O)[C@H](Cc1c[nH]c2ccccc12)NC(C)=O)[C@@H](C)O)C(=O)N[C@H]1CSSC[C@@H](C(=O)N[C@@H](Cc2c[nH]c3ccccc23)C(=O)N2CCC[C@H]2C(=O)N2CCC[C@@H]2C(=O)N2CCC[C@@H]2C(=O)N2CCC[C@@H]2C(=O)NCCOCCOCCOCCOCCOCCOCCOCCOCCC(=O)N[C@H](CCCCNC(=O)CN2CCN(CC(=O)O)CCN(CC(=O)O)CCN(CC(=O)O)CC2)C(N)=O)NC(=O)[C@H](CC(=O)O)NC(=O)[C@H](Cc2c[nH]cn2)NC(=O)[C@H](Cc2ccc3ccccc3c2)NC(=O)[C@H](CC(N)=O)NC(=O)[C@H](CC(N)=O)NC1=O` [compound 357, Ac-W-T-I-C(3)-N-N-(2Nal)-H-D-C(3)-W-P-(D-Pro)3-PEG8-[D-Lys(DOTA)]-NH2] (Ac-WTICNN[2Nal]HDCWP[dP][dP][dP][PEG8][dK](DOTA)-NH2; disulfide 4-10): the Kd was less than 1 nM. As for `CC(=O)N[C@@H](Cc1c[nH]c2ccc(F)cc12)C(=O)N[C@H](C(=O)N[C@@H](Cc1ccccc1C(F)(F)F)C(=O)N[C@H]1CSSC[C@@H](C(=O)N[C@@H](Cc2c[nH]c3ncccc23)C(=O)N2CC[C@H]2C(=O)N[C@H](CCCCNC(=O)CN2CCN(CC(=O)O)CCN(CC(=O)O)CCN(CC(=O)O)CC2)C(N)=O)NC(=O)[C@H](CC(=O)O)NC(=O)[C@H](Cc2cnc[nH]2)NC(=O)[C@H](Cc2ccc(C(F)(F)F)cc2)NC(=O)[C@H](CC(N)=O)NC(=O)[C@H](CC(N)=O)NC1=O)[C@@H](C)O` [compound 144, Ac-(5Fluoro-W)-T-(2CF3-F)-C(3)-N-N-(4CF3-F)-H-D-C(3)-(7Aza-W)-(Aze)-[D-Lys(DOTA)]-NH2] (Ac-[Trp(5-F)]T[Phe(2-CF3)]CNN[Phe(4-CF3)]HDC[Trp(7-aza)][Aze][dK](DOTA)-NH2; disulfide 4-10), the figure is 1 to 10 nM. Turning to `CC[C@H](C)[C@H](NC(=O)[C@@H](NC(=O)[C@H](Cc1c[nH]c2ccccc12)NC(C)=O)[C@@H](C)O)C(=O)N[C@H]1CSSC[C@@H](C(=O)N[C@@H](Cc2c[nH]c3ccccc23)C(=O)N2C[C@H](F)C[C@H]2C(=O)N[C@H](CCCCNC(=O)CN2CCN(CC(=O)O)CCN(CC(=O)O)CCN(CC(=O)O)CC2)C(N)=O)NC(=O)[C@H](CC(=O)O)NC(=O)[C@H](Cc2c[nH]cn2)NC(=O)[C@H](Cc2c[nH]c3ccccc23)NC(=O)[C@H](CC(N)=O)NC(=O)[C@H](CC(N)=O)NC1=O` [compound 113, Ac-W-T-I-C(3)-N-N-W-H-D-C(3)-W-(trans4Fluoro-P)-[D-Lys(DOTA)]-NH2] (Ac-WTICNNWHDCW[Pro(trans-4-F)][dK](DOTA)-NH2; disulfide 4-10), the Kd was less than 1 nM. As to `CCC(CC)[C@H](NC(=O)[C@@H](NC(=O)[C@H](Cc1c[nH]c2ccc(F)cc12)NC(C)=O)[C@@H](C)O)C(=O)N[C@H]1CSSC[C@@H](C(=O)N[C@@H](Cc2c[nH]c3ncccc23)C(=O)N2C[C@H](F)C[C@H]2C(=O)N[C@H](CCCCNC(=O)CN2CCN(CC(=O)O)CCN(CC(=O)O)CCN(CC(=O)O)CC2)C(N)=O)NC(=O)[C@H](CC(=O)O)NC(=O)[C@H](Cc2c[nH]cn2)NC(=O)[C@H](Cc2ccc(F)cc2)NC(=O)[C@H](CC(N)=O)NC(=O)[C@H](CC(N)=O)NC1=O` [compound 130, Ac-(5Fluoro-W)-T-(Env)-C(3)-N-N-(4Fluoro-F)-H-D-C(3)-(7Aza-W)-(trans4Fluoro-P)-[D-Lys(DOTA)]-NH2] (Ac-[Trp(5-F)]T[Nva(3-Et)]CNN[Phe(4-F)]HDC[Trp(7-aza)][Pro(trans-4-F)][dK](DOTA)-NH2; disulfide 4-10), the equilibrium dissociation constant (Kd) was 1 to 10 nM.
